Experiments:
Experiment in all cases: relative viability (nuclei count vs DMSO), 5 days (fraction); higher = more cells survive
[1] = compound: CC1=C(C(=NN1)C)CC2=C(C3=C(S2)N(C(=O)N(C3=O)C)CC(C)C)C(=O)N4C[C@@H](CO4)O + Cc1cc(Nc2cc(N3CCN(C)CC3)nc(Sc3ccc(NC(=O)C4CC4)cc3)n2)n[nH]1 [Tozasertib] (partner 0.1 µM)
Method in brief: (§1)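 Relative viability was taken as the ratio of nuclei in treated wells to nuclei in vehicle wells. Lung cancer cell lines in 1536-well plates received compounds by pin tool one day after seeding, either one drug alone or a fixed anchor-drug dose plus five library-drug doses (not always all listed) in √10 steps. Nuclei were counted on 4× images after 5 days of treatment, and values are medians of duplicate plates.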

[2] = compound: Cc1ccccc1C(C(=O)NC1CCCCC1)N(C(=O)Cn1ccnc1C)c1cccc(F)c1 [IDH-C35] + CC(=O)c1c(C)c2cnc(Nc3ccc(N4CCNCC4)cn3)nc2n(C2CCCC2)c1=O [Palbociclib] (partner 0.5 µM)
Method in brief: as §1

[3] = compound: Cc1ccccc1C(C(=O)NC1CCCCC1)N(C(=O)Cn1ccnc1C)c1cccc(F)c1 [IDH-C35] + CC1(C)CCC(c2ccc(Cl)cc2)=C(CN2CCN(c3ccc(C(=O)NS(=O)(=O)c4ccc(N[C@H](CCN5CCOCC5)CSc5ccccc5)c(S(=O)(=O)C(F)(F)F)c4)cc3)CC2)C1 [Navitoclax] (partner 0.5 µM)
Method in brief: as §1

[4] = compound: Cc1ccccc1C(C(=O)NC1CCCCC1)N(C(=O)Cn1ccnc1C)c1cccc(F)c1 [IDH-C35] + C[C@]1(O)C[C@@H](c2nc(-c3ccc4ccc(-c5ccccc5)nc4c3)c3c(N)nccn32)C1 [Linsitinib] (partner 1 µM)
Method in brief: as §1

Row | Cell Line | relative viability ([1]; first compound 0.0025 µM) | relative viability ([1]; first compound 0.007906 µM) | relative viability ([1]; first compound 0.025 µM) | relative viability ([1]; first compound 0.07906 µM) | relative viability ([1]; first compound 0.25 µM) | relative viability ([2]; first compound 0.08 µM) | relative viability ([2]; first compound 0.253 µM) | relative viability ([2]; first compound 0.8 µM) | relative viability ([2]; first compound 2.53 µM) | relative viability ([2]; first compound 8 µM) | relative viability ([3]; first compound 0.08 µM) | relative viability ([3]; first compound 0.253 µM) | relative viability ([3]; first compound 0.8 µM) | relative viability ([3]; first compound 2.53 µM) | relative viability ([3]; first compound 8 µM) | relative viability ([4]; first compound 0.08 µM) | relative viability ([4]; first compound 0.253 µM) | relative viability ([4]; first compound 0.8 µM) | relative viability ([4]; first compound 2.53 µM) | relative viability ([4]; first compound 8 µM)
1 | BEN | 0.495 | 0.563 | 0.586 | 0.457 | 0.52 | 0.433 | 0.514 | 0.466 | 0.481 | 0.463 | 0.0634 | 0.062 | 0.0706 | 0.0643 | 0.0666 | 0.831 | 0.899 | 0.813 | 0.906 | 0.99
2 | NCI-H23 | 0.784 | 0.42 | 0.412 | 0.334 | 0.388 | 0.55 | 0.494 | 0.43 | 0.525 | 0.538 | 0.792 | 0.828 | 0.883 | 0.992 | 0.807 | 0.514 | 0.541 | 0.541 | 0.523 | 0.505
3 | NCI-H1395 | 0.757 | 0.681 | 0.581 | 0.592 | 0.599 | 0.626 | 0.605 | 0.612 | 0.601 | 0.598 | 1.14 | 1.05 | 1.49 | 1.08 | 1.16 | 1.2 | 1.04 | 1.1 | 1.09 | 0.956
4 | 201T | 1.05 | 0.92 | 0.915 | 0.904 | 1.03 | 0.361 | 0.375 | 0.346 | 0.351 | 0.343 | 1.18 | 1.19 | 1.19 | 1.17 | 1.19 | 1.03 | 1.06 | 1.01 | 0.992 | 0.955
5 | NCI-H460 | 0.493 | 0.337 | 0.494 | 0.479 | 0.54 | 0.23 | 0.231 | 0.194 | 0.233 | 0.12 | 1.26 | 1.19 | 1.06 | 1.07 | 1.21 | 0.909 | 0.872 | 0.843 | 0.749 | 0.663
6 | HCC-15 | 0.458 | 0.519 | 0.435 | 0.469 | 0.448 | 0.791 | 0.695 | 0.748 |  | 0.67 | 0.69 | 0.692 | 0.708 | 0.632 | 0.606 | 0.866 | 0.828 | 0.788 | 0.835 | 0.764
7 | NCI-H441 | 0.657 | 0.647 | 0.575 | 0.664 | 0.623 | 0.183 | 0.238 | 0.254 | 0.242 | 0.224 | 0.694 |  | 0.568 | 0.582 | 0.675 | 0.589 | 0.518 | 0.404 | 0.651 | 0.633
8 | EPLC-272H | 0.267 | 0.227 | 0.324 | 0.259 | 0.609 | 0.294 | 0.347 | 0.353 |  | 0.316 | 1.27 | 1.13 | 1.13 |  | 1.07 | 1.12 | 1.31 | 1.08 |  | 1.25

Source: the supplement of paper PMC10307832
